Reference: US20090053138A1, “Stabilized Aptamers to Platelet Derived Growth Factor and their Use as Oncology Therapeutics” (priority 2002, published 2009)
Strand notation (5' to 3'): a small letter for the sugar, then the base; units joined by * are phosphorothioate-linked, units joined directly phosphodiester-linked; [ ] holds rarer units or linkages, { } end groups; capitals alone tell only the bases. [HEG] = hexaethylene glycol spacer joining aptamer pieces; [invdT] = inverted (3'-3') thymidine; d = 2'-deoxy (DNA); m = 2'-O-methyl

Experiments:
PDGF-AA = biological target: T1, PDGF-AA (Homo sapiens, UniProt P04085); assay: Competition binding assay, PDGF-AA
T1 construct: purchased PeproTech, Rocky Hill, N.J
Excerpt: (§1) Next, a study was done to determine whether ARC126 cross reacted with PDGF-BB of species other than human. Competition binding assays were set up by dot blot analysis, as previously described, using human, rat, and mouse PDGF-BB (PeproTech, Rocky Hill, N.J.).
(§2) The competitive binding assay previously described was used to determine the in vitro binding affinity and selectivity of ARC594 for different PDGF isoforms. Different concentrations of unlabeled, competitor aptamer were titrated in separate reactions against a fixed (<0.1 nM) amount of ^32P-radiolabeled ARC594 in buffer containing a fixed amount (0.1 nM) of the aptamer's cognate target (PDGF-BB; PeproTech). UnPEGylated version of ARC594 was radiolabeled at the 5′ terminus by incubation with γ-^32P-ATP (ICN) and polynucleotide kinase (NEB). Binding reactions were carried out in phosphate-buffered saline (Cellgro) containing 0.2 mg/mL bovine serum albumin (NEB) and 0.02 mg/mL tRNA (Sigma). […] The data was expressed as the ratio of the counts per minute (CPM) of radioactivity due to ^32P-ARC594 bound to PDGF BB on the nitrocellulose membrane (CPMnitrocellulose or CPMnc) over the total CPM (CPMtotal=CPMnitrocellulose+CPMnylon).

PDGF-BB [1] = biological target: T2, PDGF-BB (Rattus norvegicus, UniProt Q05028); assay: Competition binding assay, rat PDGF-BB
T2 construct: purchased PeproTech, Rocky Hill, N.J
Excerpt: as §1

PDGF-BB [2] = biological target: T3, PDGF-BB (Mus musculus, UniProt P31240); assay: Competition binding assay, mouse PDGF-BB
T3 construct: purchased PeproTech, Rocky Hill, N.J
Excerpt: as §1

PDGF BB [3] = biological target: T4, PDGF BB (Homo sapiens, UniProt P01127); assay: Dot-blot binding assay, PDGF BB
Method: (§3) Binding data for the constituent aptamers and the multivalent aptamers were collected by dot-blot assays in which radio-labeled aptamer is incubated with protein target and then forced through a sandwich of nitrocellulose over nylon and the results shown in FIG. 22. Protein-associated radio-label is captured on the nitrocellulose membrane while the balance of the radio-label is captured on the nylon membrane. The radio-label data is collected on a phosphorimaging plate. […] The multivalent aptamers TK.131.012.A (SEQ ID NO. 9) and TK.131.012.B (SEQ ID NO. 10) were made synthetically.

PDGF BB [4] = biological target: T4, PDGF BB; assay: Competition binding assay, PDGF-BB; design: purchased PeproTech, Rocky Hill, N.J; conditions: human PDGF-BB; read-out: Kd
Method: Binding reactions were carried out in phosphate-buffered saline (Cellgro, Herndon, Va.) containing 0.2 mg/mL bovine serum albumin (NEB) and 0.02 mg/mL tRNA (Sigma, St. Louis, Mo.). The reactions were equilibrated for a period of 15-30 minutes at room temperature, then filtered through a sandwich of nitrocellulose (Protran membrane, Perkin-Elmer, Boston, Mass.) and nylon (Hybond membrane, Amersham, Piscataway, N.J.) membranes to separate target bound aptamer from free aptamer.
as §1
as §2, with “(Sigma). The reactions were equilibrated for a period of 15-30 minutes at room temperature, then filtered through a sandwich of nitrocellulose (Protran membrane, Perkin-Elmer) and nylon (Hybond membrane, Amersham) membranes to separate target bound aptamer from free aptamer.” for “(Sigma).”

PDGF AB = PDGF AB (Homo sapiens, UniProt P01127); assay: Competition binding assay, PDGF-AB; design: purchased PeproTech, Rocky Hill, N.J
Excerpt: as §1, §2

PDGF BB [5] = biological target: T4, PDGF BB; assay: 3T3 cell proliferation assay (PDGF-BB induced); format: cell-based, rat; design: purchased PeproTech, Rocky Hill, N.J; conditions: after lyophilization and storage at −20 degrees celsius for 2 years
Method: 3T3 cells, a rat fibroblast cell line (ATCC, Manassas, Va.), were plated 3,000 cells/well in a 96 well plate one day prior to the start of the assay in 100 ul DMEM/10% FCS. The following day, cells were washed once with straight DMEM and then 75 ul DMEM/0.8% FCS was added to each well. […] Cells were incubated for 3 days. Following incubation 10 ul MTT (Promega, Madison, Wis.) was added to each well and incubated for an additional 1.5 hours. Media was then removed, 200 ul Isopropanol (2-propanol) was added to each well, cells were re-suspended thoroughly and absorbance at 570 nm was read on a 96 well plate reader.
(§4) 3T3 cells, which are derived from a rat fibroblast cell line (ATCC, Manassas, Va.), were used in a proliferation assay to test potency of modified ARC513 aptamers. 3T3 fibroblast cells have PDGF receptors on their cell-surface and respond to mitogen, e.g., PDGF stimulation by proliferation. The assay was performed as follows: 3T3 cells were plated 3,000 cells/well in a 96 well plate one day prior to the start of the assay in 100 ul DMEM/10% FCS. The following day, cells were washed once with straight DMEM and then 75 ul DMEM/0.8% FCS was added to each well. Then 25 ul of PDGF-BB (PeproTech, Rocky Hill, N.J.) at a 50 ng/ml final concentration was added to each well +/− aptamer condition to be tested. […] The functional PDGF aptamer dilutions usually consisted of 6 points in 2-fold serial dilutions.
(§5) Cells were incubated for 3 days. Following incubation 10 ul MTT (Promega, Madison, Wis.) was added to each well and incubated for an additional 1.5 hours. Media was removed, 200 μl Isopropanol (2-propanol) was added to each well, cells were re-suspended thoroughly and absorbance at 570 nm was read on a 96 well plate reader. The present example depicts the potency comparison of PDGF aptamer ARC: 513 to that of ARC 513 variants.
The 3T3 proliferation assay previously described was used to test potency of all PEG conjugated ARC513 variants described immediately above. The assay was performed as follows: 3T3 cells were plated 3,000 cells/well in a 96 well plate one day prior to the start of the assay in 100 ul DMEM/10% FCS. The following day, cells were washed once with straight DMEM and then 75 ul DMEM/0.8% FCS was added to each well. Then 25 ul of PDGF-BB (PeproTech, Rocky Hill, N.J.) at a 50 ng/ml final concentration was added to each well +/− aptamer condition to be tested. […] The functional PDGF aptamer dilutions usually consisted of 6 points in 2-fold serial dilutions.
as §5, with “ARC513” for “ARC: 513”, “PEGylated ARC513 aptamers.” for “ARC 513 variants.”
as §4, with “3T3” for “3T3 cells, which are derived from a rat fibroblast cell line (ATCC, Manassas, Va.), were used in a proliferation assay to test potency of modified ARC513 aptamers. 3T3”, “100 μl” for “100 ul”
as §5, with “[…]” for “μl”, “reader.” for “reader. The present example depicts the potency comparison of PDGF aptamer ARC: 513 to that of ARC 513 variants.”

VEGF = biological target: T5, VEGF (Homo sapiens, UniProt P15692); assay: Dot-blot binding assay, VEGF
T5 sequence (P15692 27-191 isoform P15692-4): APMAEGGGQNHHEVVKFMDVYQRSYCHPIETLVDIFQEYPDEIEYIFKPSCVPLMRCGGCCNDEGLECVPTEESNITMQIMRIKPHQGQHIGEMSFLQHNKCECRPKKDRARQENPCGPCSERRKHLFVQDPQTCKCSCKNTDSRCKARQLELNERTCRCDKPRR
Method: as §3

PDGF BB [6] = biological target: T4, PDGF BB; assay: ERK phosphorylation assay in 3T3 cells; format: cell-based, mouse; design: purchased R&D Systems, Minneapolis, Minn; conditions: 10 ng/ml PDGF-BB, 30 minutes
Method: ERK phosphorylation was used to test whether ARC124 (SEQ ID NO:11) retained its functionality after the incorporation of CpG motifs into the aptamer sequence. One hundred and fifty thousand 3T3 cells (a mouse fibroblast cell line which contains PDGF-R) were plated into an appropriate number of wells on a 12 well plate one day prior to the experiment and serum starved in 0.5% FBS overnight. Cells were treated with 10 ng/ml PDGF-BB (R&D Systems, Minneapolis, Minn.) in the presence or absence of CpG-island containing PDGF aptamers for 30 minutes. […] Protein concentration in cell lysates was determined using BIO-RAD protein assay reagent according to manufacturer's recommendations (Bio-Rad, Hercules, Calif.). Lysates were prepared by adding NuPage LDS Sample Buffer 4× with 0.1M DTT to a final concentration of 1× (invitrogen, Carlsbad, Calif.) and incubated at 70° C. for 7 minutes. Forty micrograms of total protein was loaded into each well of a NuPage 10%, Bis-Tris gel (Invitrogen, Carlsbad, Calif.). The gel was run at 100 mAmp for 1 hour. Gel was then transferred to a HyBond ECL nitrocellulose membrane (Amersham, Piscataway, N.J.) at 250 mAmp for 3 hours. After transfer, the nitrocellulose was blocked with 5% BSA (Sigma, St. Louis, Mo.) in PBS for one hour at room temperature. The nitrocellulose membrane was incubated with a p44/42 MAP Kinase antibody overnight at 4° C. […]

T4 sequence (P01127 82-190 limits assumed): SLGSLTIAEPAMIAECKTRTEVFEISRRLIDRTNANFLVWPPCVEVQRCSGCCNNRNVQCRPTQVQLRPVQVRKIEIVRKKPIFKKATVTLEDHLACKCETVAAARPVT
T3 sequence (P31240 82-190 limits assumed): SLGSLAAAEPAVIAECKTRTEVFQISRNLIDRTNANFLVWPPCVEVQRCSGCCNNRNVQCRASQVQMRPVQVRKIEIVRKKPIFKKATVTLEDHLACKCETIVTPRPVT
T2 sequence (Q05028 66-174 limits assumed): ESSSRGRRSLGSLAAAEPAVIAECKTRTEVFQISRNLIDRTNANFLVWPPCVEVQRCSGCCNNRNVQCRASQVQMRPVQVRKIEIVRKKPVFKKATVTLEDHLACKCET
Sequence of PDGF AB (P01127 82-190 limits assumed, other chains not shown): as the sequence (P01127 82-190 limits assumed) above

Question: For “5′-(SEQ ID NO: 1)-HEG-(SEQ ID NO:2)-HEG-(SEQ ID NO:3)-3′-dT-3′ (chain 1 CAGGCUACG; chain 2 CGTAGAGCAUCA; chain 3 TGATCCUG; piece 1: 2'-fluoro at 6, 8, 2'-O-methyl at 9, 3' [HEG], other sugars and backbone not given here; piece 2: 2'-O-methyl at 5, 7, 12, 2'-fluoro at 10, 11, 3' [HEG], other sugars and backbone not given here; piece 3: 2'-fluoro at 5, 6, 7, 2'-O-methyl at 8, 3' [invdT], other sugars and backbone not given here) [ARC126]”, which “binding to PDGF-AA” value (PDGF-AA) is on record?
Answer: The value was “does not bind”.

Question: What about the “affinity for rat PDGF-BB” value (PDGF-BB [1]) of the same substance?
Answer: The value was “equal affinity”.

Question: What about the Kd (PDGF-BB [1]; read-out: affinity for rat PDGF-BB) of the same substance?
Answer: The Kd was roughly 0.1 nM.

Question: And the “affinity for mouse PDGF-BB” value (PDGF-BB [2])?
Answer: Its value is “equal affinity”.

Question: And the Kd (PDGF-BB [2]; read-out: affinity for mouse PDGF-BB)?
Answer: Its Kd is roughly 0.1 nM.

Question: What about the Kd (PDGF BB [3]; entirely DNA ARC126 used in the multivalent aptamer) of the same substance?
Answer: Its Kd is roughly 0.1 nM.

Question: And the Kd (PDGF BB [4])?
Answer: The Kd was roughly 0.1 nM.

Question: And the Kd (PDGF AB)?
Answer: Its Kd is roughly 0.1 nM.

Question: And the “potency of legacy aptamers vs newly synthesized” value (PDGF BB [5])?
Answer: The value was “just as potent”.

Question: With “5′-mAmUmGmCmAmGmUmUmUmGmAmGmAmAmGmUmCmGmCmGmCmAmU-[3T]-3′ (SEQ ID NO: 7) (AUGCAGUUUGAGAAGUCGCGCAU; all 2'-O-methyl, [invdT] at 3' end, backbone not given here) [ARC245]” as the substance, how does the Kd (VEGF) read?
Answer: Its Kd is roughly 2 nM.

Question: “CpGARC124short: PDGF aptamer ARC124 with CpG motif appended (SEQ ID NO:20) (AACGTTCGAGCAGGCTACGGCACGTAGAGCATCACCATGATCCTGC; synthetic aptamer; (1)..(11) phosphorothiate backbone between nucleotides 1-11; (44)..(46) phosphorothiate backbone between nucleotides 44-46)” was tested. Which “phosphorylation of ERK” value (PDGF BB [6]) did it give?
Answer: The value was “can block phosphorylation of ERK”.

Question: For “LongCpGARC124: PDGF aptamer ARC124 with CpG motif appended (SEQ ID NO:21) (dG*dT*dG*dA*dA*dC*dG*dT*dT*dC*dG*dA*dG*dCdAdGdGdCdTdAdCdGdGdCdAdCdGdTdAdGdAdGdCdAdTdCdAdCdCdAdTdGdAdTdCdCdT*dG*dC[invdT]; further chemistry not fully specified)”, which “phosphorylation of ERK” value (PDGF BB [6]) is on record?
Answer: The value was “can block phosphorylation of ERK”.

Question: What does the source list for “TK.131.012.A: PDGF/VEGF binding multivalent aptamer (SEQ ID NO:9) (CAGGCTACGAUGCAGUUUGAGAAGUCGCGCAUCGTAGAGCATCAGAAATGATCCTG; sugars from the 5' end d9 m23 d24, 3' [invdT], backbone not given here; further chemistry not fully specified)”?
Answer: Kd (PDGF BB [3]): ~10 nM; Kd (VEGF): ~10 nM

Question: What does the source list for “TK.131.012.B: PDGF/VEGF binding multivalent aptamer (SEQ ID NO: 10) (CAGGCTACGUGCAGUUUGAGAAGUCGCGCACGTAGAGCATCAGAAATGATCCTG; sugars from the 5' end d9 m21 d24, 3' [invdT], backbone not given here; further chemistry not fully specified)”?
Answer: Kd (PDGF BB [3]): ~10 nM; Kd (VEGF): ~5 nM
